In US20220204497A1, “NOVEL COMPOUND HAVING ANTICANCER ACTIVITY, AND METHOD FOR PRODUCING SAME” (MEDICINAL BIOCONVERGENCE RESEARCH CENTER, priority 2019, published 2022):

These compounds were tested on A549 cells (assay: Cell viability by MTT method in A549 cells). Conditions: 72 hours treatment.
Assay type: cell-based
Parameters: concentration or dose not given beside the values

SMILES | Cell Viability (% inhibition) (A549)
Cc1ccc(S(=O)(=O)N[C@@H](Cc2ccccc2)C(=O)Nc2ccc(N3CCOCC3)cc2)cc1 [Compound 48, (S)-2-(4-methylphenylsulfonamido)-N-(4-morpholinophenyl)-3-phenylpropanamide] | 45.68 ± 2.92%
COc1ccc(-c2csc(NC(=O)[C@H](Cc3c[nH]c4ccccc34)NS(=O)(=O)c3ccc(Br)cc3)n2)cc1 [Compound 62, (S)-2-(4-Bromophenylsulfonamido)-3-(1H-indol-3-yl)-N-(4-(4-methoxyphenyl)thiazol-2-yl)propanamide] | 90.17 ± 0.96%
Cc1ccccc1S(=O)(=O)N[C@@H](Cc1c[nH]c2ccccc12)C(=O)Nc1ccc(N2CCOCC2)cc1 [Compound 64, (S)-3-(1H-indol-3-yl)-2-(2-methylphenylsulfonamido)-N-(4-morpholinophenyl)propanamide] | 51.75 ± 1.56%
Cc1cccc(S(=O)(=O)N[C@@H](Cc2c[nH]c3ccccc23)C(=O)Nc2ccc(N3CCOCC3)cc2)c1 [Compound 65, (S)-3-(1H-indol-3-yl)-2-(3-methylphenylsulfonamido)-N-(4-morpholinophenyl)propanamide] | 74.94 ± 1.04%
Cc1ccc(S(=O)(=O)N[C@H](Cc2c[nH]c3ccccc23)C(=O)Nc2ccc(N3CCOCC3)cc2)cc1 [Compound 76, (R)-3-(1H-indol-3-yl)-2-(4-methylphenylsulfonamido)-N-(4-morpholinophenyl)propanamide] | 63.47 ± 0.82%
COC[C@H](C)Oc1ccc(-c2csc(NC(=O)[C@H](CC(C)C)NS(=O)(=O)c3ccc(C)cc3)n2)cc1 [Compound 98, (S)—N-(4-(4((S)-1-methoxypropan-2-yloxy)phenyl)thiazol-2-yl)-4-methyl-2-(4-methylphenylsulfonamido)pentanamide] | 76.55 ± 1.52%
Cc1ccc(S(=O)(=O)N[C@@H](CC(C)C)C(=O)Nc2nc(-c3ccc(N4CCOCC4)cc3)cs2)cc1 [Compound 99, (S)-4-Methyl-2-(4-methylphenylsulfonamido)-N-(4-(4-morpholinophenyl)thiazol-2-yl)pentanamide] | 73.11 ± 3.83%
COC(=O)c1ccc(-c2csc(NC(=O)[C@H](CC(C)C)NS(=O)(=O)c3ccc(C)cc3)n2)cc1 [Compound 100, (S)-Methyl 4-(2-(4-methyl-2-(4-methylphenylsulfonamido)pentanamido)thiazol-4-yl)benzoate] | 79.24 ± 1%
COc1ccc(-c2csc(NC(=O)[C@H](Cc3c[nH]c4ccccc34)NS(=O)(=O)c3ccc(Br)cc3)n2)c(OC)c1 [Compound 108, (S)-2-(4-Bromophenylsulfonamido)-N-(4-(2,4-dimethoxyphenyl)thiazol-2-yl)-3-(1H-indol-3-yl)propanamide] | 9.05 ± 7.51%
Cc1ccc(S(=O)(=O)N[C@@H](Cc2cn(C=O)c3ccccc23)C(=O)Nc2ccc(N3CCOCC3)cc2)cc1 [Compound 125, (S)-3-(1-Formyl-1H-indol-3-yl)-2-(4-methylphenylsulfonamido)-N-(4-morpholinophenyl)propanamide] | 49.76 ± 2.98%
COc1ccc(-c2cc(NC(=O)[C@H](Cc3c[nH]c4ccccc34)NS(=O)(=O)c3ccc(C)cc3)on2)cc1 [Compound 126, (S)-3-(1H-indol-3-yl)-N-(3-(4-methoxyphenyl)isoxazol-5-yl)-2-(4-methylphenylsulfonamido)propanamide] | 85.53 ± 0.66%
Cc1ccc(S(=O)(=O)N[C@@H](CO)C(=O)Nc2ccc(N3CCOCC3)cc2)cc1 [Compound 130, (S)-3-Hydroxy-2-(4-methylphenylsulfonamido)-N-(4-morpholinophenyl)propanamide] | 16.62 ± 10.08%
Cc1ccc(S(=O)(=O)N[C@H](C(=O)Nc2ccc(N3CCOCC3)cc2)C(C)C)cc1 [Compound 131, (S)-3-Methyl-2-(4-methylphenylsulfonamido)-N-(4-morpholinophenyl)butanamide] | 5.78 ± 7.70%
O=C(Nc1ccccc1)N[C@@H](Cc1c[nH]c2ccccc12)C(=O)N1CCOCC1 [Compound 132, (S)-1-(3-(1H-indol-3-yl)-1-morpholino-1-oxopropan-2-yl)-3-phenylurea] | −11.18 ± 5.31%
Cc1ccc(S(=O)(=O)N[C@@H](Cc2c[nH]c3ccccc23)C(=O)Nc2ccc(N3CCOCC3)nc2)cc1 [Compound 133, (S)-3-(1H-indol-3-yl)-2-(4-methylphenylsulfonamido)-N-(6-morpholinopyridin-3-yl)propanamide] | 6.18 ± 6.05%
N#Cc1ccc(S(=O)(=O)N[C@@H](Cc2c[nH]c3ccccc23)C(=O)Nc2ccc(N3CCOCC3)cc2)cc1 [Compound 135, (S)-2-(4-Cyanophenylsulfonamido)-3-(1H-indol-3-yl)-N-(4-morpholinophenyl)propanamide] | 55.02 ± 1.06%

SMILES | Cell Viability (% inhibition) (A549)
O=C(Nc1ccc(N2CCOCC2)cc1)[C@H](Cc1c[nH]c2ccccc12)NS(=O)(=O)c1ccc(C(F)(F)F)nc1 [Compound 136, (S)-3-(1H-indol-3-yl)-N-(4-morpholinophenyl)-2-(6-(trifluoromethyl)pyridine-3-sulfonamido)propanamide] | 87.12 ± 2.3%
COC(=O)CC[C@@H](C(=O)Nc1ccc(N2CCOCC2)cc1)N(C)S(=O)(=O)c1ccccc1 [Compound 137, (S)-Methyl 4-(methylphenylsulfonamido)-5-(4-morpholinophenylamino)-5-oxopentanoate] | 17.75 ± 5.15%
Cc1ccc(S(=O)(=O)N[C@@H](Cn2cnc3ccccc32)C(=O)Nc2ccc(N3CCOCC3)cc2)cc1 [Compound 138, (S)-3-(1H-benzo[d]imidazol-1-yl)-2-(4-methylphenylsulfonamido)-N-(4-morpholinophenyl)propanamide] | 14.63 ± 1.98%
Cc1ccc(S(=O)(=O)N[C@H](Cn2c(=O)c(=O)[nH]c3ccccc32)C(=O)Nc2ccc(N3CCOCC3)cc2)cc1 [Compound 139, (R)-3-(2,3-dioxo-3,4-dihydroquinoxalin-1(2H)-yl)-2-(4-methylphenylsulfonamido)-N-(4-morpholinophenyl)propanamide] | 9.99 ± 0.24%
Cc1ccc(S(=O)(=O)N[C@@H](CCCCNC(=O)c2ccc(C(F)(F)F)cn2)C(=O)Nc2ccc(N3CCOCC3)cc2)cc1 [Compound 140, (S)—N-(5-(4-methylphenylsulfonamido)-6-(4-morpholinophenylamino)-6-oxohexyl)-5-(trifluoromethyl)picolinamide] | 86.68 ± 1.25%
Cc1ccc(S(=O)(=O)N[C@@H](CCC(=O)OCc2ccccc2)C(=O)Nc2ccc(N3CCOCC3)cc2)cc1 [Compound 141, (S)-Benzyl 4-(4-methylphenylsulfonamido)-5-(4-morpholinophenylamino)-5-oxopentanoate] | 40.15 ± 6.15%
Cc1ccc(S(=O)(=O)N[C@@H](CC(=O)OCc2ccccc2)C(=O)Nc2ccc(N3CCOCC3)cc2)cc1 [Compound 142, (S)-Benzyl 3-(4-methylphenylsulfonamido)-4-(4-morpholinophenylamino)-4-oxobutanoate] | 15.9 ± 4.84%
CC(C)C[C@H](NS(=O)(=O)c1ccc(C(=O)O)cc1)C(=O)N1CCOCCOCCOCC1 [Compound 157, (S)-4-(N-(4-methyl-1-oxo-1-(1,4,7-trioxa-10-azacyclododecan-10-yl)pentan-2-yl)sulfamoyl)benzoic acid] | 64.40 ± 2.96%
Cc1ccc(S(=O)(=O)N[C@@H](Cc2c[nH]c3ccccc23)C(=O)NNC(=O)c2ccc(N3CCOCC3)cc2)cc1 [Compound 163, (S)—N-(3-(1H-indol-3-yl)-1-(2-(4-morpholinobenzoyl)hydrazinyl)-1-oxopropan-2-yl)-4-methylbenzenesulfonamide] | 18.63 ± 9.48%
Cc1ccc(S(=O)(=O)N[C@@H](Cc2c[nH]c3ccccc23)C(=O)Nc2nc(-c3ccc(N4CCOCC4)cc3)cs2)cc1 [Compound 164, (S)-3-(1-indol-3-yl)-2-(4-methylphenylsulfonamido)-N-(4-(4-morpholinophenyl)thiazol-2-yl)propanamide] | 88.05 ± 0.8%
COC(=O)c1ccc(-c2csc(NC(=O)[C@H](Cc3c[nH]c4ccccc34)NS(=O)(=O)c3ccc(C)cc3)n2)cc1 [Compound 165, (S)-Methyl 4-(2-(3-(1H-indol-3-yl)-2-(4-methylphenylsulfonamido)propanamido)thiazol-4-yl)benzoate] | 78.22 ± 0.97%
O=C(OCc1ccccc1)[C@H](Cc1c[nH]c2ccccc12)NS(=O)(=O)c1ccc(C(F)(F)F)nc1 [Compound 166, (S)-Benzyl 3-(1H-indol-3-yl)-2-(6-(trifluoromethyl)pyridine-3-sulfonamido)propanoate] | 97.48 ± 1%
Cc1ccc(S(=O)(=O)N[C@@H](CCC(=O)Nc2ccc([N+](=O)[O-])cc2)C(=O)Nc2ccc(N3CCOCC3)cc2)cc1 [Compound 167, (S)-2-(4-Methylphenylsulfonamido)-N^1-(morpholinophenyl)-N^5-(4-nitrophenyl)pentanediamide] | 85.33 ± 1.28%
Cc1ccc(S(=O)(=O)N[C@@H](CCCCNC(=O)OCc2ccccc2)C(=O)Nc2ccc(N3CCOCC3)cc2)cc1 [Compound 168, (S)-Benzyl 5-(4-methylphenylsulfonamido)-6-(4-morpholinophenylamino)-6-oxohexylcarbamate] | 84.11 ± 1.25%
Cc1ccc(S(=O)(=O)N[C@@H](CCCCN)C(=O)Nc2ccc(N3CCOCC3)cc2)cc1 [Compound 169, (S)-6-Amino-2-(4-methylphenylsulfonamido)-N-(4-morpholinophenyl)hexanamide] | 3.97 ± ? .91%
COc1cc(OC)cc(C(=O)NCCCC[C@H](NS(=O)(=O)c2ccc(C)cc2)C(=O)Nc2ccc(N3CCOCC3)cc2)c1 [Compound 170, (S)-3,5-Dimethoxy-N-(5-(4-methylphenylsulfonamido)-6-(4-morpholinophenylamino)-6-oxohexyl)benzamide] | 31.41 ± 4.96%
